In US20030008234A1, “Optical data carrier comprising a cyanine dye as light-absorbent compound in the information layer” (priority 2001, published 2003) one finds Solubility data, which are given here for three compounds.

This data set is described as follows: Solubility in TFP (2,2,3,3-tetrafluoropropanol). Type of data set: physicochemical.
For `CC(C)N(c1nn(C)/c(=N/C=C/C2=[N+](C)c3ccccc3C2(C)C)s1)C(C)C` [Example 1], the Solubility is over 2%.
`CCN1CCS/C1=C/c1sc2ccccc2[n+]1C.[I-]` [Example 2] returned a Solubility of 5%.
For the compound `CCN1CCS/C1=C/c1sc2ccccc2[n+]1C`, the Solubility was 5%.
